We go through 29 molecules from patent US12202823B2 (QUIMATRYX, S.L., priority 2019, dated 2025).

This test has as its target hHDAC6 (Homo sapiens (Human), UniProt Q9UBN7). Briefly: HDAC6 inhibition protocol. To be noted: read-out: IC50 (nM) of enzyme activity HDAC6; hHDAC6 1.20 nM, Acetylated Peptide A 2 μM, 1 hour at RT.

hHDAC6, sequence (Q9UBN7 whole entry): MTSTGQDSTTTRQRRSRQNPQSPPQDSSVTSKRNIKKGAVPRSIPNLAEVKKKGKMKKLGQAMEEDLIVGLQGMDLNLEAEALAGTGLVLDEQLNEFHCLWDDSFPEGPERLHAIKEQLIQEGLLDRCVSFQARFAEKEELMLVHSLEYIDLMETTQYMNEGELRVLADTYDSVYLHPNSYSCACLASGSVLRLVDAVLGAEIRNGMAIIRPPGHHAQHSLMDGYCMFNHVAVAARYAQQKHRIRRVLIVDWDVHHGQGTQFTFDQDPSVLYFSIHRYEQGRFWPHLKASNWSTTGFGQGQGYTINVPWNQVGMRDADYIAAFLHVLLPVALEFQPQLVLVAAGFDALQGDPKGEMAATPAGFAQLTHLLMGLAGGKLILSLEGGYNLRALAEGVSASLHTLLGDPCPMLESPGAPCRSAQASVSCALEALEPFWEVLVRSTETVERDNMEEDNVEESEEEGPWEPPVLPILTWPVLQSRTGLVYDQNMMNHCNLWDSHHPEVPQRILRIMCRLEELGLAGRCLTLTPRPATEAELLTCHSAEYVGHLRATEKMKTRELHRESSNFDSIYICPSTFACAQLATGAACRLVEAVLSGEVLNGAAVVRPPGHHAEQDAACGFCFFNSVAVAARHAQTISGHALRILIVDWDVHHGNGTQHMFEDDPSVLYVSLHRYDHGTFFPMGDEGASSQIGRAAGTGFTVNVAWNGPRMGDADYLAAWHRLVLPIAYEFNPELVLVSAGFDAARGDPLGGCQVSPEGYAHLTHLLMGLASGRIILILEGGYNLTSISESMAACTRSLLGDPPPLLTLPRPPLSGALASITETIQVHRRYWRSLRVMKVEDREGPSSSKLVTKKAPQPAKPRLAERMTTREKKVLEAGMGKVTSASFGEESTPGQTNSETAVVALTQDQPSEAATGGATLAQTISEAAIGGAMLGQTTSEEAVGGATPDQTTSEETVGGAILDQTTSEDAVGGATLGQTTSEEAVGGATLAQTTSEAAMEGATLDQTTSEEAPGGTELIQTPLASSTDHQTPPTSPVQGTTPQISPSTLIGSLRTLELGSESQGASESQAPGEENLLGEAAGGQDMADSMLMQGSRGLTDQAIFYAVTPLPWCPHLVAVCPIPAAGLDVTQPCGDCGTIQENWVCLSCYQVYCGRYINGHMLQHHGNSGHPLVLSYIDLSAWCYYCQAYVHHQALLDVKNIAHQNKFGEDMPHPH

A word on the IC50: it is the concentration that inhibits the measured activity by half. Regarding `CC(c1ccc(-c2nnc(C(F)F)o2)cc1)n1cc(-c2ccccc2)nn1` (centres unmarked) [Example 37, 2-(difluoromethyl)-5-(4-(1-(4-phenyl-1H-1,2,3-triazol-1-yl)ethyl)phenyl)-1,3,4-oxadiazole], the half-inhibitory concentration (IC50) was 149 nM. For `FC(F)c1nnc(-c2ccc(Cn3nnc(-c4ccccc4)c3-c3ccccc3)cc2)o1` [Example 38, 2-(difluoromethyl)-5-(4-((4,5-diphenyl-1H-1,2,3-triazol-1-yl)methyl)phenyl)-1,3,4-oxadiazole] the value was 266 nM; for `Cc1c(-c2ccccc2)nnn1Cc1ccc(-c2nnc(C(F)F)o2)cc1` [Example 39, 2-(difluoromethyl)-5-(4-((5-methyl-4-phenyl-1H-1,2,3-triazol-1-yl)methyl)phenyl)-1,3,4-oxadiazole], 366 nM. For `Cc1nnn(Cc2ccc(-c3nnc(C(F)F)o3)cc2)c1-c1ccccc1` [Example 40, 2-(difluoromethyl)-5-(4-((4-methyl-5-phenyl-1H-1,2,3-triazol-1-yl)methyl)phenyl)-1,3,4-oxadiazole] the value was 686 nM; for `FC(F)c1nnc(-c2ccc(Cn3cc(-c4ccccc4)nn3)nc2)o1` [Example 41, 2-(difluoromethyl)-5-(6-((4-phenyl-1H-1,2,3-triazol-1-yl)methyl)pyridin-3-yl)-1,3,4-oxadiazole], 40.9 nM; for `FC(F)c1nnc(-c2ccc(Cn3cc(-c4ccccc4)nn3)cn2)o1` [Example 42, 2-(difluoromethyl)-5-(5-((4-phenyl-1H-1,2,3-triazol-1-yl)methyl)pyridin-2-yl)-1,3,4-oxadiazole], 1990 nM. Consider `FC(F)c1nnc(-c2ccc(Cn3cc(-c4ccc(Cl)cc4)nn3)nc2)o1` [Example 43, 2-(6-((4-(4-chlorophenyl)-1H-1,2,3-triazol-1-yl)methyl)pyridin-3-yl)-5-(difluoromethyl)-1,3,4-oxadiazole], for which the IC50 came out at 43.1 nM. With `FC(F)c1nnc(-c2ccc(Cn3cc(-c4ccccc4Cl)nn3)nc2)o1` [Example 44, 2-(6-((4-(2-chlorophenyl)-1H-1,2,3-triazol-1-yl)methyl)pyridin-3-yl)-5-(difluoromethyl)-1,3,4-oxadiazole] the figure was 37.1 nM; with `FC(F)c1nnc(-c2ccc(Cn3cc(-c4cccc(Cl)c4)nn3)nc2)o1` [Example 45, 2-(6-((4-(3-chlorophenyl)-1H-1,2,3-triazol-1-yl)methyl)pyridin-3-yl)-5-(difluoromethyl)-1,3,4-oxadiazole], 33.5 nM. For `FC(F)c1nnc(-c2ccc(Cn3cc(-c4ccc(Cl)c(Cl)c4)nn3)nc2)o1` [Example 46, 2-(6-((4-(3,4-dichlorophenyl)-1H-1,2,3-triazol-1-yl)methyl)pyridin-3-yl)-5-(difluoromethyl)-1,3,4-oxadiazole] the value was 37.9 nM; for `FC(F)c1nnc(-c2ccc(Cn3cc(-c4cc(Cl)cc(Cl)c4)nn3)nc2)o1` [Example 47, 2-(6-((4-(3,5-dichlorophenyl)-1H-1,2,3-triazol-1-yl)methyl)pyridin-3-yl)-5-(difluoromethyl)-1,3,4-oxadiazole], 25.7 nM. For `Fc1cccc(F)c1-c1cn(Cc2ccc(-c3nnc(C(F)F)o3)cn2)nn1` [Example 49, 2-(difluoromethyl)-5-(6-((4-(2,6-difluorophenyl)-1H-1,2,3-triazol-1-yl)methyl)pyridin-3-yl)-1,3,4-oxadiazole] the value was 66.7 nM. Consider `COc1cccc(-c2cn(Cc3ccc(-c4nnc(C(F)F)o4)cn3)nn2)c1` [Example 50], for which the IC50 was determined as 43.5 nM.

Turning to `FC(F)c1nnc(-c2ccc(Cn3nnc(-c4ccccc4)c3Cl)cc2)o1` [Example 51, 2-(4-((5-chloro-4-phenyl-1H-1,2,3-triazol-1-yl)methyl)phenyl)-5-(difluoromethyl)-1,3,4-oxadiazole], the IC50 came out at 87.9 nM. With `FC(F)c1nnc(-c2ccc(Cn3nnc(-c4ccccc4)c3Cl)nc2)o1` [Example 52, 2-(6-((5-chloro-4-phenyl-1H-1,2,3-triazol-1-yl)methyl)pyridin-3-yl)-5-(difluoromethyl)-1,3,4-oxadiazole] the figure was 48.4 nM.

For the molecule `FC(F)c1nnc(-c2ccc(Cn3nnc(-c4ccccc4Cl)c3Cl)nc2)o1` [Example 53, 2-(6-((5-chloro-4-(2-chlorophenyl)-1H-1,2,3-triazol-1-yl)methyl)pyridin-3-yl)-5-(difluoromethyl)-1,3,4-oxadiazole], the IC50 worked out at 81.5 nM.

With `FC(F)c1nnc(-c2ccc(C(Cl)n3cc(-c4ccccc4)nn3)nc2)o1` (centres unmarked) [Example 55, 2-(6-(chloro(4-phenyl-1H-1,2,3-triazol-1-yl)methyl)pyridin-3-yl)-5-(difluoromethyl)-1,3,4-oxadiazole], the IC50 was 58.2 nM.

For `Fc1cc(F)cc(-c2cn(Cc3ccc(-c4nnc(C(F)F)o4)cn3)nn2)c1` [Example 56, 2-(difluoromethyl)-5-(6-((4-(3,5-difluorophenyl)-1H-1,2,3-triazol-1-yl)methyl)pyridin-3-yl)-1,3,4-oxadiazole], the IC50 was 66.5 nM. Turning to `Fc1cc(-c2cn(Cc3ccc(-c4nnc(C(F)F)o4)cn3)nn2)cc(F)c1F` [Example 57, 2-(difluoromethyl)-5-(6-((4-(3,4,5-trifluorophenyl)-1H-1,2,3-triazol-1-yl)methyl)pyridin-3-yl)-1,3,4-oxadiazole], the IC50 was 149 nM. `FC(F)c1nnc(-c2ccc(Cn3c(C(F)(F)F)nc4cc(Cl)c(Cl)cc43)nc2)o1` [Example 58, 2-(6-((5,6-dichloro-2-(trifluoromethyl)-1H-benzo[d]imidazol-1-yl)methyl)pyridin-3-yl)-5-(difluoromethyl)-1,3,4-oxadiazole]: the IC50 is 121 nM. For `Cc1cc2nnn(Cc3ccc(-c4nnc(C(F)F)o4)cn3)c2cc1C` [Example 59, 2-(difluoromethyl)-5-(6-((5,6-dimethyl-1H-benzo[d][1,2,3]triazol-1-yl)methyl)pyridin-3-yl)-1,3,4-oxadiazole] the value was 85.1 nM; for `Cc1nc2cc(Cl)c(Cl)cc2n1Cc1ccc(-c2nnc(C(F)F)o2)cn1` [Example 60, 2-(6-((5,6-dichloro-2-methyl-1H-benzo[d]imidazol-1-yl)methyl)pyridin-3-yl)-5-(difluoromethyl)-1,3,4-oxadiazole], 42.3 nM. On to `Cc1cc2ncn(Cc3ccc(-c4nnc(C(F)F)o4)cn3)c2cc1C` [Example 61, 2-(difluoromethyl)-5-(6-((5,6-dimethyl-1H-benzo[d]imidazol-1-yl)methyl)pyridin-3-yl)-1,3,4-oxadiazole], for which the IC50 was determined as 187 nM. With `FC(F)c1nnc(-c2ccc(Cn3cnc4ccc(Br)cc43)nc2)o1` [Example 62, 2-(6-((6-bromo-1H-benzo[d]imidazol-1-yl)methyl)pyridin-3-yl)-5-(difluoromethyl)-1,3,4-oxadiazole] the figure was 61.8 nM; with `FC(F)c1nnc(-c2ccc(Cn3cnc4cc(Br)ccc43)nc2)o1` [Example 63, 2-(6-((5-bromo-1H-benzo[d]imidazol-1-yl)methyl)pyridin-3-yl)-5-(difluoromethyl)-1,3,4-oxadiazole], 48.3 nM; with `FC(F)c1nnc(-c2ccc(Cn3nnc4cc(Br)ccc43)nc2)o1` [Example 64, 2-(6-((5-bromo-1H-benzo[d][1,2,3]triazol-1-yl)methyl)pyridin-3-yl)-5-(difluoromethyl)-1,3,4-oxadiazole], 48.7 nM.

With `FC(F)c1nnc(-c2ccc(Cn3nnc4ccc(Br)cc43)nc2)o1` [Example 65, 2-(6-((6-bromo-1H-benzo[d][1,2,3]triazol-1-yl)methyl)pyridin-3-yl)-5-(difluoromethyl)-1,3,4-oxadiazole], the IC50 came to 40.4 nM. With `FC(F)c1nnc(-c2ccc(Cn3nc4ccc(Br)cc4n3)nc2)o1` [Example 66, 2-(6-((5-bromo-2H-benzo[d][1,2,3]triazol-2-yl)methyl)pyridin-3-yl)-5-(difluoromethyl)-1,3,4-oxadiazole] the figure was 33.3 nM; with `Fc1ccccc1-c1nnn(Cc2ccc(-c3nnc(C(F)F)o3)cn2)c1Cl` [Example 67, 2-(6-((5-chloro-4-(2-fluorophenyl)-1H-1,2,3-triazol-1-yl)methyl)pyridin-3-yl)-5-(difluoromethyl)-1,3,4-oxadiazole], 67.4 nM.
